Data from article doi:10.1101/2025.02.17.638454, “Synergistic RAS-MAPK and AKT Activation in MYC-Driven Tumors via Adjacent PVT1 Rearrangements” (bioRxiv, 2025).
No end group written: not given here.

Assays:
[1] = target: T1, recombinant KRAS protein (Homo sapiens, UniProt P01116); assay: Isothermal titration calorimetry of HNB into recombinant KRAS; format: binding; settings: ITC, pH 8.0, 25°C, N 1 (fixed)
T1 construct: purchased Abcam ab156968
Description: Isothermal titration calorimetry (ITC) measures the change in temperature when two or more biomolecules bind to each other in a solution. The assay provides the binding affinity of ligands to proteins and the entropy or enthalpy of the reaction. Recombinant KRAS protein (#ab156968, Abcam) was dialyzed into the ITC assay buffer (20mM Tris pH 8.0, 100mM NaCl, 5mM Beta-mercaptoethanol) and concentrated to about 100 μM. During ITC titration twenty 6 μl injections (with intervals of 150 seconds) of 500μM HNB were made into the ITC cell containing 93 μM KRAS. Titration of 500μM HNB into the ITC assay buffer under the same conditions was used as the baseline control. ITC experiments were performed using Affinity ITC instrument (TA Instruments) at 25°C. The data was fitted and analyzed using NanoAnalyze software provided by TA Instruments. […]
(§1) bioRxiv preprint doi: https://doi.org/10.1101/2025.02.17.638454; this version posted February 22, 2025. The copyright holder for this preprint (which was not certified by peer review) is the author/funder, who has granted bioRxiv a license to display the preprint in perpetuity. It is made available under aCC-BY 4.0 International license. […]

[2] = test system: HALLMARK_MTORC1_SIGNALING; assay: GSEA MTORC1 signaling, SK-PN-DW; format: cell-based, human; settings: si.CircPVT1 vs si.Ctrl, n=3, Padj = 0.010
Excerpt: (§2) RNAseq processing: Raw reads were mapped to the hg19 human reference genome using the STAR aligner (v.2.5.0a) 66. PCR-duplicated reads and low mapping quality reads (MQ score below 20) were removed using Picard tools and SAMtools, respectively. Aligned reads were counted using htseq-count (v.0.6.1p1) 69 and normalized according to size factors method from DESeq2 70. We used fold change ≥2 and FDR <0.05 as the determination of differentially expressed genes (DEG). Statistical analysis and plots were performed inside R environment version 3.1.0. upload files) […]
as §1, with “a CC-BY” for “aCC-BY”, “license .” for “license.”
Supplementary Figure 11: Gene set enrichment analysis scores (GSEA) analysis of genes involved in MTORC 1 signaling in COLO320DM (A) and SK-PN-DW (B) treated with si.CircPVT 1. si.Ctrl was used as control. n=3, for each treatment condition .
(also on this page, place not known: SK-PN-DWB MTORC1 si.CircPVT1. condition. Enrichment Score Enrichment Score .CC-BY licenseavailable preprintthis https://doi.org/10.1101/2025.02.17.638454doi:) […]

[3] = test system: SK-PN-DW cells; assay: Proliferation assay SK-PN-DW; format: cell-based, human; settings: si.CircPVT1 vs si.Ctrl, n=3, two-way ANOVA, P<0.0001
Excerpt: Cancer cell lines: COLO-320DM, SK-PN-DW, U2OS, BxPC-3, DU145, SKBR-3 and, NCI-H1792 were obtained from American Type Culture Collection (Rockville, MD) and grown in their required growth medium per the American Type Culture Collection description. D458 and MB002 were obtained from Dr. Michael Taylor’s lab at SickKids hospital, Toronto. Cell line identity for the master stocks were verified by STR genotyping (IDEXX BioResearch)

[4] = test system: MYC targets genes; assay: GSEA MYC targets, D458; format: cell-based, human; settings: D458, si.CircPVT1 vs si.Ctrl, n=3
Excerpt: RNAseq processing: Raw reads were mapped to the hg19 human reference genome using the STAR aligner (v.2.5.0a) 66. PCR-duplicated reads and low mapping quality reads (MQ score below 20) were removed using Picard tools and SAMtools, respectively. Aligned reads were counted using htseq-count (v.0.6.1p1) 69 and normalized according to size factors method from DESeq2 70. We used fold change ≥2 and FDR <0.05 as the determination of differentially expressed genes (DEG). Statistical analysis and plots were performed inside R environment version 3.1.0. upload files)

[5] = test system: HALLMARK_MYC_TARGETS; assay: GSEA MYC targets, SK-PN-DW; format: cell-based, human; settings: si.CircPVT1 vs si.Ctrl, n=3, Padj = 0.010
Excerpt: as §2, with “(DEG).” for “(DEG). Statistical analysis and plots were performed inside R environment version 3.1.0. upload files)”
Supplementary Figure 9: Gene set enrichment analysis scores (GSEA) analysis for MYC targets genes in COLODM320 (A,B) and SK-PN-DW (C,D) treated with si.CircPVT 1. si.Ctrl was used as control . n=3, for each treatment condition .
(also on this page, place not known: Enrichment Score Enrichment Score si.CircPVT1. control. condition. Enrichment Score Enrichment Score .CC-BY licenseavailable preprintthis https://doi.org/10.1101/2025.02.17.638454doi:) […]

T1 sequence (P01116 1-188 isoform P01116-2): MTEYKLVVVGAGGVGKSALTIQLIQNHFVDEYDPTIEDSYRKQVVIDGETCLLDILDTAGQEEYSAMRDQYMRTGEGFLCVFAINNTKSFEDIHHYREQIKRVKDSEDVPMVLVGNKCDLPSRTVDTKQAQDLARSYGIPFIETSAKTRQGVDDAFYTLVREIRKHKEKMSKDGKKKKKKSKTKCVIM

Row | -TDS [1] | DH [1] | Substance | NES, HALLMARK_MTORC1_SIGNALING [2] | cellular proliferation [3] | MYC targets (GSEA) [4] | NES, HALLMARK_MYC_TARGETS_V1 [5] | NES, HALLMARK_MYC_TARGETS_V2 [5]
1 | -2.9 ± 6.28 kJ/mol | -17 ± 8.4 kJ/mol | MKTQLGAVKGFLHV [HNB] |  |  |  |  | 
2 |  |  | si.CircPVT1: siRNA targeting the junction sequence of CircPVT1, 5’-UGGGCUUGAGGCCUGAUCUUU-3’ (other strand not given here) | -1.859 | reduced cellular proliferation | depletion of MYC targets | -1.653 | -1.789
